Experiments:
Uocb-1 cells = experiment: Cell Titer Glo viability assay, Uocb-1; format: cell-based; conditions: Homo sapiens, UoC-B1, 72-h treatment
Protocol: (§1) Either 1 × 10^3–4.8 × 10^3 or 4 × 10^2–1.2 × 10^3 cells were seeded to each well of 96- or 384-well white polystyrene flat-bottomed plates (3610 or 8804BC, Corning) in 100 μL or 30 μL media per well, respectively. The concentrations used were experimentally determined to ensure logarithmic growth during the duration of the experiment and prevent adverse effects on cell growth by DMSO exposure. The plates were incubated at 37°C in 5% CO2 for 24 h before treatment. Stock solutions of test compounds (10 mM in DMSO) in nine 3-fold serial dilutions were dispensed via pintool (Biomek). The final concentration of DMSO was 0.3% (v/v) in each well. […] Luminescence was recorded in an Envision plate reader (PerkinElmer).
(§2) For the CTG assay, 3 or 4 replicate assays were conducted for each experimental condition, and a minimum of 3 independent experiments were conducted for cellular assays. The mean luminescence of each experimental treatment group was normalized as a percentage of the mean intensity of untreated controls. EC50 values (μM) were calculated by Pipeline Pilot Software (Accelrys, Enterprise Platform, San Diego, CA, United States). EC50 values (μM) from the viability assay were calculated from dose response curve-fitting via non-linear regression by using GraphPad Prism (Version 7.0, San Diego, CA, United States). […]

MDA-MB-231 cells = experiment: De novo in-cell protein synthesis (click assay); format: cell-based, human; conditions: 2 h; EP 20 μM
Protocol: First, 2.5 × 10^4 cells/well were seeded in 8-well μ-slides (Ibidi®, #80826) and incubated at 37°C for 12 h. The cells were treated with vehicle, compounds Ganoderic acid A or EP, or cycloheximide (positive control) for 2 h to determine protein synthesis as nascent proteins generated using Biovision’s EZClick^TM Global Protein Synthesis Assay Kit, (#K715-100, Milpitas, CA, United States). The assay includes a robust chemical method based on an alkyne containing o-propargyl-puromycin (OP-puro) probe, which stops translation by forming covalent conjugates with nascent polypeptide chains. Truncated polypeptides are rapidly turned over by the proteasome and can be detected based on the subsequent click reaction with a fluorescent azide. The reaction was conducted according to the manufacturer’s protocol. Cells were imaged at 20× with a Nikon C2 scanning confocal microscope, and the whole image montage was quantified by using Gen5 Software and Lionheart^TM FX Automated Microscope (BioTek, Winooski, VT, United States).

SUM-149 cells [1] = experiment: Cell migration assay (Boyden chamber); format: cell-based, human; conditions: 10 μM, 72 h
Protocol: (§3) Cell migration and invasion were measured by using Corning® FluoroBlok^TM Cell Culture Inserts and performing BD BioCoat Matrigel invasion assays (BD Biosciences, San José, CA, United States) as described in [Martinez-Montemayor et al. (2011)] and [Suarez-Arroyo et al. (2016)].

MCF10A cells = experiment: cells; format: cell-based
Protocol: Cell viability assays (MTT or PI staining assays) in SUM-149, SUM-190, MDA-MB-231, and MCF10A cells were performed as we previously described ([Suarez-Arroyo et al., 2016]).
For the CTG assay, 3 or 4 replicate assays were conducted for each experimental condition, and a minimum of 3 independent experiments were conducted for cellular assays. The mean luminescence of each experimental treatment group was normalized as a percentage of the mean intensity of untreated controls. EC50 values (μM) were calculated by Pipeline Pilot Software (Accelrys, Enterprise Platform, San Diego, CA, United States). EC50 values (μM) from the viability assay were calculated from dose response curve-fitting via non-linear regression by using GraphPad Prism (Version 7.0, San Diego, CA, United States). For cell viability, colony formation, cell-cycle progression, cell death, and western blot assays, the analyses were performed via one-way or two-way ANOVA with post-testing for each condition (concentration, cell cycle stage, apoptotic event, cell line) by using GraphPad Prism.

[2] = tested on: additional cancer cellular models; experiment: Cell viability, additional cancer cellular models; format: cell-based; conditions: Supplementary Figure S2
Protocol: as §1, §2

MCF-7 cells = experiment: ROS measurement (CellROX green), MCF-7; format: cell-based, human
Protocol: SUM-149 or MDA-MB-231 were plated in 96-well plates at a density of 2 × 10^4 and 1 × 10^4 cells/well, respectively, in black 96-well clear bottom tissue culture plates and incubated for 24 h at 37°C. The mRuby-Mito-7 plasmid was obtained from Addgene (#55874 from Michael Davidson). A stable clone of MCF-7 was generated by using Fugene 6 (Roche) to transfect cells (2 × 10^5) with plasmid (2.0 μg) under neomycin selection. A stable cell line was selected by using G418 (300 μg/mL) for 2 weeks, sorted by flow cytometry, and maintained under G418 thereafter. Transfected MCF-7 cells were plated at a density of 2 × 10^4 cells/well in black 96-well clear bottom tissue culture plates and incubated overnight at 37°C. To test for ROS formation and remove background, cells were replenished with fresh PBS with 2% FBS and treated with the desired compounds for 1 h at 37°C. DMSO (0.5%) was used as a negative control, while Menadione (Mena, at 10 μM) or t-Butyl hydroperoxide (TBHP) at 100 μM final concentration were used as a positive control. To evaluate the compounds’ effects on ROS formation inhibition, the free radical scavenger N-acetyl cysteine (NAC) was used. Cells were treated with or without NAC (500 μM or 100 μM) for 1 h, then CellROX® green reagent (Molecular Probes #C10444) was added to a final concentration of 5 μM, and cells were incubated for an additional 30 min at 37°C. Cells were then washed 2× with PBS, followed by fixation with 4% paraformaldehyde (v/v) for 15 min, and 2 more washes with PBS. Fluorescence intensity was measured in a Clariostar® plate reader (BMG LABTECH, Cary, NC, United States) at 535 nm.

SUM-149 cells [3] = experiment: Matrigel invasion assay (Transwell); format: cell-based, human; conditions: 72 h
Protocol: as §3

SUM-149 cells [4] = experiment: Colony formation assay; format: cell-based, human; conditions: 72 h treatment, 5–40 μM, 10 days culture
Protocol: SUM-149 cells (1.5 × 10^6 cells/well) were plated on a 6-well plate. Two days later, cell media was changed to 5% FBS, and cells were incubated at 37°C in a 5% CO2 atmosphere for 1 h before vehicle (0.1% DMSO) or EP (5–40 μM) was added. After 72 h of treatment, cells were trypsinized and reseeded at 200 cells/mL per well in 24-well plates. After 10 days of culture, colonies were visualized by crystal violet staining, and the colony numbers were counted under a microscope.

CC(C)[C@@H](C)/C=C/[C@@H](C)[C@H]1CC[C@@H]2[C@]1(C)CC[C@H]1[C@]23C=C[C@]2(C[C@@H](O)CC[C@]12C)OO3 [EP, ergosterol peroxide]
EC50 (Uocb-1 cells): 13.6 µM | de novo protein synthesis inhibition (MDA-MB-231 cells): do not inhibit | cancer cell migration (SUM-149 cells [1]): decreases cancer cell migration | cytotoxicity in MCF10A non-cancerous mammary epithelial cells (MCF10A cells): did not induce cytotoxicity | EC50 (MCF10A cells; Homo sapiens, MCF-10A, PI staining, 72-h treatment): > 100 µM | EC50 [2]: 7 to 22 µM | ROS increase (fold) (MCF-7 cells; GA-01, ergosterol, 5,6-dehydroergosterol 50 µM, EP 20 µM): at least a twofold | ROS formation reduction when co-treated with NAC (MCF-7 cells; NAC 100 µM, TBHP 100 µM): 9–25% | invading cells (SUM-149 cells [3]; 10 μM): significant reduction | decrease in invasion (SUM-149 cells [3]; 15 μM): 43% | number and size of colonies formed (SUM-149 cells [4]): concentration-dependent decrease

Reference: PMC6389703, “Identification of Biologically Active Ganoderma lucidum Compounds and Synthesis of Improved Derivatives That Confer Anti-cancer Activities in vitro” (Frontiers in Pharmacology, 2019)
